In patent publication US9809551B2, “Solid forms of Ivacaftor and processes for the preparation thereof” (Apotex Inc., priority 2013, dated 2017):

Experiment: Storage stability of Ivacaftor APO-I polymorph at 25±2° C. / 60%±5% RH
Assay type: physicochemical
Experimental: Ivacaftor APO-I polymorph samples were packed in an inner antistatic polyethylene bag sealed with a cable tie encased within a heat sealed composite aluminum out bag under nitrogen within a HDPE drum. The samples were then tested for stability after storing at 25±2° C. with 60%±5% relative humidity (RH). Impurities, drug concentrations, polymorph stability and other parameters were measured at intervals during the storage.

- Assay (by HPLC) (12 months): 99.8%
- Description (12 months): Off white
- Assay (by HPLC) (Initial): 99.1%
- Description (Initial): Off white
- XRPD (polymorph stability) (Initial): APO-I
SMILES: CC(C)(C)c1cc(C(C)(C)C)c(NC(=O)c2c[nH]c3ccccc3c2=O)cc1O [Ivacaftor APO-I polymorph, N-(2,4-di-tert-butyl-5-hydroxyphenyl)-1,4-dihydro-4-oxoquinoline-3-carboxamide]
